# Measurements reported in ChEMBL document CHEMBL4828719, “H2dpa derivatives containing pentadentate ligands: An acyclic adjuvant potentiates meropenem activity in vitro and in vivo against metallo-β-lactamase-producing Enterobacterales” (Eur J Med Chem, 2021).
# Activity calls are given as the source filed them. No cut-off for these calls is given here.
# Columns and labels:
# [1] = Zinc chelation-dependent inhibition of NDM-1 (unknown origin) expressed in Escherichia coli DH5 alpha using meropenem as substrate preincubated with enzyme for 5 mins followed by substrate addition in the presence of zinc sulfate
# [2] = Zinc chelation-dependent inhibition of IMP-1 (unknown origin) expressed in Escherichia coli DH5 alpha using imipenem as substrate preincubated with enzyme for 5 mins followed by substrate addition in the presence of zinc sulfate
# [3] = Zinc chelation-dependent inhibition of VIM-2 (unknown origin) expressed in Escherichia coli DH5 alpha using nitrocefin as substrate preincubated with enzyme for 5 mins followed by substrate addition in presence of zinc sulfate
# [4] = Zinc chelation-dependent inhibition of NDM-1 (unknown origin) expressed in Escherichia coli BL21 (DE3) using meropenem as substrate preincubated with enzyme for 5 to 10 mins followed by substrate addition
# [5] = Zinc chelation-dependent inhibition of VIM-2 (unknown origin) expressed in Escherichia coli BL21 (DE3) using nitrocefin as substrate preincubated with enzyme for 5 to 10 mins followed by substrate addition
# Escherichia coli [6] = assay: Antibiotic adjuvant activity against NDM-1 producing Escherichia coli DH5alpha assessed as potentiation of meropenem-induced antibacterial activity incubated for 16 to 20 hrs by agar disc diffusion assay; assay type: functional, organism-based; conditions: DH5[alpha], time 16-20 hrs
# Escherichia coli [7] = assay: Synergistic antibacterial activity against NDM-1 producing Escherichia coli DH5alpha assessed as fractional inhibitory concentration index incubated for 16 to 20 hrs in presence of meropenem by checkerboard assay; assay type: functional, DH5[alpha]; conditions: time 16-20 hrs
# Escherichia coli [8] = assay: Synergistic antibacterial activity against IMP-4 producing Escherichia coli DH5alpha assessed as fractional inhibitory concentration index incubated for 16 to 20 hrs in presence of meropenem by checkerboard assay; assay type: functional, DH5[alpha]; conditions: time 16-20 hrs
# [9] = Zinc chelation-dependent inhibition of IMP-4 (unknown origin) expressed in Escherichia coli BL21 (DE3) using imipenem as substrate preincubated with enzyme for 5 to 10 mins followed by substrate addition
# Escherichia coli [10] = assay: Antibacterial activity against VIM-1 producing Escherichia coli DH5alpha assessed as decrease in bacterial growth incubated for 16 to 20 hrs by CLSI based microdilution method; assay type: functional; conditions: DH5[alpha], time 16-20 hrs
# Escherichia coli [11] = assay: Antibiotic adjuvant activity against VIM-1 producing Escherichia coli DH5alpha assessed as potentiation of meropenem-induced antibacterial activity incubated for 16 to 20 hrs by agar disc diffusion assay; assay type: functional, organism-based; conditions: DH5[alpha], time 16-20 hrs
# Escherichia coli [12] = assay: Antibacterial activity against IMP-4 producing Escherichia coli DH5alpha assessed as decrease in bacterial growth incubated for 16 to 20 hrs by CLSI based microdilution method; assay type: functional; conditions: DH5[alpha], time 16-20 hrs
# Escherichia coli [13] = assay: Antibacterial activity against NDM-1 producing Escherichia coli DH5alpha assessed as decrease in bacterial growth incubated for 16 to 20 hrs by CLSI based microdilution method; assay type: functional; conditions: DH5[alpha], time 16-20 hrs
# Escherichia coli [14] = assay: Synergistic antibacterial activity against VIM-1 producing Escherichia coli DH5alpha assessed as fractional inhibitory concentration index incubated for 16 to 20 hrs in presence of meropenem by checkerboard assay; assay type: functional, DH5[alpha]; conditions: time 16-20 hrs
# Escherichia coli [15] = assay: Antibiotic adjuvant activity against IMP-4 producing Escherichia coli DH5alpha assessed as potentiation of meropenem-induced antibacterial activity incubated for 16 to 20 hrs by agar disc diffusion assay; assay type: functional, organism-based; conditions: DH5[alpha], time 16-20 hrs
Compound,Activity [1],Activity [2],Activity [3],IC50 [4] [nM],IC50 [5] [nM],Activity (Escherichia coli [6]),fractional inhibitory concentration index (FICI) (Escherichia coli [7]),fractional inhibitory concentration index (FICI) (Escherichia coli [8]),IC50 [9] [nM],MIC (Escherichia coli [10]) [µg/mL],Activity (Escherichia coli [11]),MIC (Escherichia coli [12]) [µg/mL],MIC (Escherichia coli [13]) [µg/mL],fractional inhibitory concentration index (FICI) (Escherichia coli [14]),Activity (Escherichia coli [15])
C[C@H](CS)C(=O)N1CCC[C@H]1C(=O)O [CAPTOPRIL],Active,Active,Active,,,,,,,,,,,,
O=C(O)c1cccc(CNCc2cccc(C(=O)O)n2)n1,,,,1540,1050,Active,0.07,0.14,1040,128,Active,128,128,0.07,Active
O=C(O)CN(CCN(CC(=O)O)CC(=O)O)CC(=O)O [EDETIC ACID],inactive,inactive,inactive,1750,> 200000,,,,12500,,,,,,
O=C(O)CN(Cc1cccc(C(=O)O)n1)Cc1cccc(C(=O)O)n1,,,,1670,1530,Active,0.07,0.14,3880,128,Active,128,128,0.07,Active
O=C(O)c1cccc(CN(CCP(=O)(O)O)Cc2cccc(C(=O)O)n2)n1,,,,1650,2030,Active,0.07,0.14,4840,128,Active,128,128,0.07,Active
N[C@@H](CN[C@@H](CN[C@@H](CC(=O)O)C(=O)O)C(=O)O)C(=O)O,,,,4000,> 200000,,,,9600,,,,,,
